Like-named read-outs stand apart in the source and are kept apart here.
Columns and labels:
[1] = cited from earlier work
[2] = system: SK-N-LO primitive neuroectodermal tumor cells; test: MTT cytotoxicity, SK-N-LO; conditions: for cytotoxicity at 0.01 µg/mL / cytotoxicity at 0.1 µg/mL / cytotoxicity at 1 µg/mL: Homo sapiens, 120 h
Excerpt: Cell lines tested included: Glioblastoma cell lines VA-MG-SL and U-373-MG, neuroblastoma cell lines SK-N-AS, SK-N-FI and VA-N-BR, and two primitive neuroectodermal tumor cell lines SK-N-LO and SK-PN-DW at different concentrations. All cell lines were personally established from patients and cultured except U-373-MG (obtained from the American Type Culture Collection, Rockville, […]., USA). The cell lines SK-N-AS, SK-N-FI, SK-N-LO and SK-PN-DW have been reported in several publications and are believed to be representative of their respective lineages.
Stock cells in 25 cm^2 flasks were incubated in Dubelco's modified Eagle's medium (Sigma, St. Louis, Mo.) containing 10% fetal bovine serum at 37° C. and 5% CO2 in air for 5 days. Media was renewed on the sixth day and on the seventh day the cells were detached into a single cell suspension with trypsin EDTA, counted and aliquots plated at 3000 to 5000 cells in 0.1 ml fresh media in separate wells of a 96-well microliter plate (Becton-Dickinson Labware, Lincoln Park, N.J.). […] Six replicate wells were used in every experiment as controls and for each test concentration. Each experiment was repeated three separate times. Viability of the cell lines 5 days after exposure to drugs was determined by the MTT assay following published procedures.
Cytocidal activity was defined when the number of cells or the MTT surrogate optical density value was less than the initial inoculum. This is usually the case when ≥80% toxicity is recorded under these in vitro conditions.
Differences were considered to be statistically significant for a p-value of 0.05 or less.

[3] = Toxicity in nude mice (wasting, weight loss); assay type: in vivo
[4] = Human toxicity, Q4D schedule (Study X); assay type: in vivo, human patients
Excerpt: […] It should be understood that these patients were deemed "salvage" cases almost all of whom had not responded to conventional treatment. All were otherwise thought to be beyond approved therapeutic regimens. Thus, the results and evaluation are anecdotal in nature and are not part of a controlled and statistical valid clinical trial.
[…] All were previously treated with chemotherapy and radiation for cancers of the breast (5), ovarian (2), brain (3), prostate (1), head and neck (4), bone (2), leiomyosarcoma (2), and melanoma (1).

[5] = Study B: taxol tissue levels after three IP injections at 4 day intervals; assay type: in vivo, nude mice; conditions: seven days after third injection
[6] = system: various cancers; test: Human tumor responses, Q4D schedule; assay type: in vivo, human patients
Protocol: From the results obtained from the in vitro and the animal studies, responses of various human subjects to the Q4d×3 (21 days×3) protocol at dosages levels of about 60 mg/m^2 were evaluated. It should be understood that these patients were deemed "salvage" cases almost all of whom had not responded to conventional treatment. All were otherwise thought to be beyond approved therapeutic regimens. Thus, the results and evaluation are anecdotal in nature and are not part of a controlled and statistical valid clinical trial.
Characteristics of the group of twenty were: male (5); female (15); median age 44 (17-81); ECOG-PS 1 (0-3). All were previously treated with chemotherapy and radiation for cancers of the breast (5), ovarian (2), brain (3), prostate (1), head and neck (4), bone (2), leiomyosarcoma (2), and melanoma (1).

For CC(=O)O[C@H]1C(=O)[C@@]2(C)[C@H]([C@H](OC(=O)c3ccccc3)[C@]3(O)C[C@H](OC(=O)[C@H](O)[C@@H](NC(=O)c4ccccc4)c4ccccc4)C(C)=C1C3(C)C)[C@]1(OC(C)=O)CO[C@@H]1C[C@@H]2O [taxol], the maximum tolerated dose ([1]; Brown et al, six-hour infusion every twenty-one days, no premedication) is given as 275 mg/m^2, the “incidence of hypersensitivity reactions” value ([1]; Brown et al) is given as “dependent upon the schedule over which the taxol was administered” and the hypersensitivity reactions ([1]; Kris et al, three hour infusion, 15-200 mg/m^2) is given as “severity and unpredictability of hypersensitivity reactions”. It also gave a cytotoxicity at 0.01 µg/mL ([2]; read-out: Taxol toxicity, SK-N-LO, 0.01 μg/ml x 1 h, 5 days after exposure) of 0%, a cytotoxicity at 0.01 µg/mL ([2]; read-out: Taxol toxicity, SK-N-LO, 0.01 μg/ml x 4 h, 5 days after exposure) of 0% and a cytotoxicity at 0.01 µg/mL ([2]; read-out: Taxol toxicity, SK-N-LO, 0.01 μg/ml x 24 h, 5 days after exposure, p < 0.05 vs 1 h) of 17%. It also gave a cytotoxicity at 0.1 µg/mL ([2]; read-out: Taxol toxicity, SK-N-LO, 0.1 μg/ml x 1 h, 5 days after exposure) of 43%, a cytotoxicity at 0.1 µg/mL ([2]; read-out: Taxol toxicity, SK-N-LO, 0.1 μg/ml x 4 h, 5 days after exposure) of 56% and a cytotoxicity at 0.1 µg/mL ([2]; read-out: Taxol toxicity, SK-N-LO, 0.1 μg/ml x 24 h, 5 days after exposure) of 47%. For the same compound, the cytotoxicity at 1 µg/mL ([2]; read-out: Taxol toxicity, SK-N-LO, 1.0 μg/ml x 1 h, 5 days after exposure) was 54%, the cytotoxicity at 1 µg/mL ([2]; read-out: Taxol toxicity, SK-N-LO, 1.0 μg/ml x 4 h, 5 days after exposure) was 58% and the cytotoxicity at 1 µg/mL ([2]; read-out: Taxol toxicity, SK-N-LO, 1.0 μg/ml x 24 h, 5 days after exposure) was 57%. For the same compound, the “cytotoxicity compared with a 1 hour exposure” value ([2]; SK-N-LO, 0.01 μg/ml, 24 hour) was “enhanced cytotoxicity”, the toxicity in words ([2]; SK-N-LO, 0.01 μg/ml, 24 hour exposure) was “toxic” and the toxicity of dosage ([3]; 10 mg/kg IP Q4D×3, neuroblastoma tumor bearing nude mice) was “non-toxic dosage”. For the same compound, the toxicity of schedule ([3]; 15 mg/kg every 4 hours×3 in one day) was “equally non-toxic”, the toxicity of schedule ([3]; 15 mg/kg every 4 days×3) was “equally non-toxic” and the “indications of toxicity (wasting or weight loss)” value ([3]; Study B, 15 mg/kg IP Q4D×3) was “no indications of toxicity”. The “toxic reaction and side effects vs twenty-four hour infusion” value ([4]; 45-120 mg/m^2, 60-180 minutes, Q4D×3) was “less toxic reaction and side effects than equivalent dosage levels over a twenty-four hour infusion”, the “maximum amount infused without exceeding toxicity limits” value ([4]; 80 minute interval) was 120 mg/m^2 and the “Alk. Phos. toxicity: A None” value ([4]; Q4D 60 mg/m^2) was 18. For the same compound, the “Alk. Phos. toxicity: B Abnormal pre-III, Improved” value ([4]; Q4D 60 mg/m^2) was 3, the “Alk. Phos. toxicity: C Abnormal pre-III, Worsened or same” value ([4]; Q4D 60 mg/m^2) was 1 and the “Alk. Phos. toxicity: D Normal pre-III, Worsened” value ([4]; Q4D 60 mg/m^2) was 1. For the same compound, the “Alk. Phos. toxicity: E Grades” value ([4]; Q4D 60 mg/m^2) was 1, the “Bilirubin toxicity: A None” value ([4]; Q4D 60 mg/m^2) was 22 and the “Bilirubin toxicity: B Abnormal pre-III, Improved” value ([4]; Q4D 60 mg/m^2) was 0. The “Bilirubin toxicity: C Abnormal pre-III, Worsened or same” value ([4]; Q4D 60 mg/m^2) was 0, the “Bilirubin toxicity: D Normal pre-III, Worsened” value ([4]; Q4D 60 mg/m^2) was 1 and the “Bilirubin toxicity: E Grades” value ([4]; Q4D 60 mg/m^2) was 1. The “HB toxicity: A None” value ([4]; Q4D 60 mg/m^2) was 18, the “HB toxicity: B Abnormal pre-III, Improved” value ([4]; Q4D 60 mg/m^2) was 1 and the “HB toxicity: C Abnormal pre-III, Worsened or same” value ([4]; Q4D 60 mg/m^2) was 2. The “HB toxicity: D Normal pre-III, Worsened” value ([4]; Q4D 60 mg/m^2) was 2, the “HB toxicity: E Grades” value ([4]; Q4D 60 mg/m^2) was 1,4 and the “PLT. toxicity: A None” value ([4]; Q4D 60 mg/m^2) was 19. The “PLT. toxicity: B Abnormal pre-III, Improved” value ([4]; Q4D 60 mg/m^2) was 0, the “PLT. toxicity: C Abnormal pre-III, Worsened or same” value ([4]; Q4D 60 mg/m^2) was 3 and the “PLT. toxicity: D Normal pre-III, Worsened” value ([4]; Q4D 60 mg/m^2) was 1. For the same compound, the “PLT. toxicity: E Grades” value ([4]; Q4D 60 mg/m^2) was 3, the “SGOT toxicity: A None” value ([4]; Q4D 60 mg/m^2) was 20 and the “SGOT toxicity: B Abnormal pre-III, Improved” value ([4]; Q4D 60 mg/m^2) was 0. The “SGOT toxicity: C Abnormal pre-III, Worsened or same” value ([4]; Q4D 60 mg/m^2) was 0, the “SGOT toxicity: D Normal pre-III, Worsened” value ([4]; Q4D 60 mg/m^2) was 3 and the “WBC toxicity: A None” value ([4]; Q4D 60 mg/m^2) was 15. The “WBC toxicity: B Abnormal pre-III, Improved” value ([4]; Q4D 60 mg/m^2) was 0, the “WBC toxicity: C Abnormal pre-III, Worsened or same” value ([4]; Q4D 60 mg/m^2) was 2 and the “WBC toxicity: D Normal pre-III, Worsened” value ([4]; Q4D 60 mg/m^2) was 6. The “GGT toxicity: A None” value ([4]; Q4D 60 mg/m^2, 11 pts) was 9, the “GGT toxicity: B Abnormal pre-III, Improved” value ([4]; Q4D 60 mg/m^2, 11 pts) was 2 and the “GGT toxicity: C Abnormal pre-III, Worsened or same” value ([4]; Q4D 60 mg/m^2, 11 pts) was 0. For the same compound, the “GGT toxicity: D Normal pre-III, Worsened” value ([4]; Q4D 60 mg/m^2, 11 pts) was 0, the “Alb. toxicity: A None” value ([4]; Q4D 60 mg/m^2, 22 pts) was 22 and the “Alb. toxicity: B Abnormal pre-III, Improved” value ([4]; Q4D 60 mg/m^2, 22 pts) was 0. For the same compound, the “Alb. toxicity: C Abnormal pre-III, Worsened or same” value ([4]; Q4D 60 mg/m^2, 22 pts) was 0, the “Alb. toxicity: D Normal pre-III, Worsened” value ([4]; Q4D 60 mg/m^2, 22 pts) was 0 and the “BUN toxicity: A None” value ([4]; Q4D 60 mg/m^2, 22 pts) was 21. The “BUN toxicity: B Abnormal pre-III, Improved” value ([4]; Q4D 60 mg/m^2, 22 pts) was 0, the “BUN toxicity: C Abnormal pre-III, Worsened or same” value ([4]; Q4D 60 mg/m^2, 22 pts) was 0 and the “BUN toxicity: D Normal pre-III, Worsened” value ([4]; Q4D 60 mg/m^2, 22 pts) was 0. The “Creat toxicity: A None” value ([4]; Q4D 60 mg/m^2, 22 pts) was 21, the “Creat toxicity: B Abnormal pre-III, Improved” value ([4]; Q4D 60 mg/m^2, 22 pts) was 0 and the “Creat toxicity: C Abnormal pre-III, Worsened or same” value ([4]; Q4D 60 mg/m^2, 22 pts) was 0. For the same compound, the “Creat toxicity: D Normal pre-III, Worsened” value ([4]; Q4D 60 mg/m^2, 22 pts) was 0, the “LDH toxicity: A None” value ([4]; Q4D 60 mg/m^2, 22 pts) was 18 and the “LDH toxicity: B Abnormal pre-III, Improved” value ([4]; Q4D 60 mg/m^2, 22 pts) was 3. For the same compound, the “LDH toxicity: C Abnormal pre-III, Worsened or same” value ([4]; Q4D 60 mg/m^2, 22 pts) was 0, the “LDH toxicity: D Normal pre-III, Worsened” value ([4]; Q4D 60 mg/m^2, 22 pts) was 0 and the “T P toxicity: A None” value ([4]; Q4D 60 mg/m^2, 22 pts) was 21. For the same compound, the “T P toxicity: B Abnormal pre-III, Improved” value ([4]; Q4D 60 mg/m^2, 22 pts) was 0, the “T P toxicity: C Abnormal pre-III, Worsened or same” value ([4]; Q4D 60 mg/m^2, 22 pts) was 0 and the “T P toxicity: D Normal pre-III, Worsened” value ([4]; Q4D 60 mg/m^2, 22 pts) was 0. For the same compound, the “toxicity or hypersensitivity vs currently recommended dosages” value ([4]; Q4D regimen, also without pretreatment) was “reduced toxicity or hypersensitivity reactions”, the CMAX taxol-associated toxicity ([4]; Q4D schedule) was “no clinically significant CMAX taxol-associated toxicity” and the “abnormalities on UA., CA^++, Phos, CO2, Cl, Na^+, K^+, Mg^+” value ([4]; in vivo) was “No abnormalities detected”. For the same compound, the alopecia ([4]; in vivo) was 2/4, the “diploplia for several hours each day following treatment” value ([4]; in vivo) was “One” and the malaise and fatigue ([4]; in vivo) was “Four”. For the same compound, the “toxicity of infusion with separated treatment days” value ([4]; treatment days separated by 3-5 days) was “toxicity of the taxol infusion was diminished”, the “taxol in the colon” value [5] was “Substantial amounts” and the “taxol in tumor and organs” value [5] was “detectable in tumor and organs”. For the same compound, the “antitumor activity in words” value ([6]; Q4D schedule, advanced disease patients with varied histologies) was “has antitumor activity in advanced disease patients with varied histologies”, the “effectiveness vs Q21 day schedule” value ([6]; Q4D, previously untreated patients or in combination/sequence, interpretation) was “equal to, or more effective than, the Q21 day schedule” and the partial response ([6]; all) was “four”. The partial response ([6]; brain) was 1 instances, the complete response ([6]; brain tumor) was “one” and the partial response ([6]; breast) was 2 instances. For the same compound, the partial response ([6]; head and neck) was 1 instances and the effectiveness in words ([6]; salvage patients, limited tests) was “demonstrated effectiveness”.
